In ChEMBL document CHEMBL1909046, “DrugMatrix in vitro pharmacology data”:

Columns and labels:
[1] = DRUGMATRIX: ATPase, Na+/K+ enzyme inhibition (substrate: ATP); assay type: tissue-based, Sus scrofa, Heart; settings: Not Active = under 50% inhibition at 10 µM
[2] = DRUGMATRIX: Serotonin (5-Hydroxytryptamine) 5-HT3 radioligand binding (ligand: [3H] GR-65630); assay type: cell membranes, Membrane; settings: hek293; Not Active = under 50% inhibition at 10 µM
[3] = DRUGMATRIX: GABAA, Muscimol, Central radioligand binding (ligand: [3H] Muscimol); assay type: cell membranes, Rattus norvegicus, Wistar, Brain, Membrane; settings: Not Active = under 50% inhibition at 10 µM
[4] = DRUGMATRIX: Glutamate, Kainate radioligand binding (ligand: [3H] Kainic acid); assay type: cell membranes, Rattus norvegicus, Wistar, Brain, Membrane; settings: Not Active = under 50% inhibition at 10 µM
[5] = DRUGMATRIX: Interleukin IL-1 radioligand binding (ligand: [125I] interleukin 1beta); assay type: cell membranes, Membrane; settings: nih3t3; Not Active = under 50% inhibition at 10 µM
[6] = DRUGMATRIX: Leukotriene, BLT (LTB4) radioligand binding (ligand: [3H]LTB4); assay type: cell membranes, Membrane; settings: u-937; Not Active = under 50% inhibition at 10 µM
[7] = molecular target: Melanocortin receptor 5 (Homo sapiens, UniProt P33032); assay type: cell membranes, HEK293, Membrane; settings: hek293; also: in other assays of this panel Not Active means under 50% inhibition at 10 µM
Sequence of Melanocortin receptor 5 (P33032 whole entry): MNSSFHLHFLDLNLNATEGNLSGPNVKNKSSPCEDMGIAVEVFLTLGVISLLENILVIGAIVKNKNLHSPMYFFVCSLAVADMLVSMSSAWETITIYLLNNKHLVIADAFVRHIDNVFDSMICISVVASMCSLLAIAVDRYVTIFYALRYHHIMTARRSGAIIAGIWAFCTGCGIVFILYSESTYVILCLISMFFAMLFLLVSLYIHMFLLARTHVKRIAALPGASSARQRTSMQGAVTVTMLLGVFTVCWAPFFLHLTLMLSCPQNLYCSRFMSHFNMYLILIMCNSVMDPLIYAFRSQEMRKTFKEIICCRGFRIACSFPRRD

[8] = molecular target: T1, Muscarinic acetylcholine receptor M5 (Homo sapiens, UniProt P08912); assay type: cell membranes, Membrane; settings: cho-k1; also: in other assays of this panel Not Active means under 50% inhibition at 10 µM
T1 sequence (P08912 whole entry): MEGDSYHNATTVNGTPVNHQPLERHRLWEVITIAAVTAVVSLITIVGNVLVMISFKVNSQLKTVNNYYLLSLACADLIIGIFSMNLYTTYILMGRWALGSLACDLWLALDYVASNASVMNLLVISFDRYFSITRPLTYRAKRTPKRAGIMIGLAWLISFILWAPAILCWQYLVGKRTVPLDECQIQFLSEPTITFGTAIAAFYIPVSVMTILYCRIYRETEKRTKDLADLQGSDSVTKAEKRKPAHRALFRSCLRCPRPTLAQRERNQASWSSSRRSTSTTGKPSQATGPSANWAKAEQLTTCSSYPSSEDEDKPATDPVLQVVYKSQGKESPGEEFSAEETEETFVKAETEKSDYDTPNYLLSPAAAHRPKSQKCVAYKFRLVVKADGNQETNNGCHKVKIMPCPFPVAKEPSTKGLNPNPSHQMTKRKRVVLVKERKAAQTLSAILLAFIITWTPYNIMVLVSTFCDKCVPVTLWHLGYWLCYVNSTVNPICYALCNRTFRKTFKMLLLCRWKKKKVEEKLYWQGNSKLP

[9] = molecular target: Cytochrome P450 2D6 (Homo sapiens, UniProt P10635); settings: bti-tn-5b1-4; also: in other assays of this panel Not Active means under 50% inhibition at 10 µM
Sequence of Cytochrome P450 2D6 (P10635 whole entry): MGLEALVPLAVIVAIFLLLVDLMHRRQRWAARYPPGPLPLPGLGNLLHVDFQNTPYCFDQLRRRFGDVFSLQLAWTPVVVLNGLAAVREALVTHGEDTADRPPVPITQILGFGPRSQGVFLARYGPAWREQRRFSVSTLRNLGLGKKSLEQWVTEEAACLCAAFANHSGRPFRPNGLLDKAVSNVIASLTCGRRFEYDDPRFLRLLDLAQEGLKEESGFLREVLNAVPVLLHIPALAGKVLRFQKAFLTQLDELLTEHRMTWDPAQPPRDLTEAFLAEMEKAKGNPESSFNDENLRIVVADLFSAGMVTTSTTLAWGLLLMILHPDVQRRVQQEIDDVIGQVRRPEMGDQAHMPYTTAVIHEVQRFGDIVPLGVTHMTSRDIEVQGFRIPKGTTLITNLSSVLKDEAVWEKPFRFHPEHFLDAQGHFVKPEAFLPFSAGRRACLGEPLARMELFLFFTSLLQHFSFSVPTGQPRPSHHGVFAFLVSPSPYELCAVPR

C[C@@H](O)[C@H]1C(=O)N2C(C(=O)O)=C(S[C@@H]3CN[C@H](C(=O)N(C)C)C3)[C@H](C)[C@H]12 [MEROPENEM]
Not Active: IC50 [1] | Ki [1] | IC50 [2] | Ki [2] | IC50 [3] | Ki [3] | IC50 [4] | Ki [4] | IC50 [5] | Ki [5] | IC50 [6] | Ki [6] | IC50 [7] | IC50 [8] | IC50 [9] | Ki [9]

O=P(O)(O)C(O)(Cc1cccnc1)P(=O)(O)O [RISEDRONIC ACID]
Not Active: IC50 [1] | Ki [1] | IC50 [2] | Ki [2] | IC50 [3] | Ki [3] | IC50 [4] | Ki [4] | IC50 [5] | Ki [5] | IC50 [6] | Ki [6] | IC50 [7] | IC50 [8] | IC50 [9] | Ki [9]

C=C(C)[C@H]1Cc2c(ccc3c2O[C@@H]2COc4cc(OC)c(OC)cc4[C@@H]2C3=O)O1 [ROTENONE]
Not Active: IC50 [1] | Ki [1] | IC50 [2] | Ki [2] | IC50 [3] | Ki [3] | IC50 [4] | Ki [4] | IC50 [5] | Ki [5] | IC50 [6] | Ki [6] | IC50 [7] | IC50 [8] | IC50 [9] | Ki [9]

C#CCN(C)[C@H](C)Cc1ccccc1 [SELEGILINE]
Not Active: IC50 [1] | Ki [1] | IC50 [2] | Ki [2] | IC50 [3] | Ki [3] | IC50 [4] | Ki [4] | IC50 [5] | Ki [5] | IC50 [6] | Ki [6] | IC50 [7] | IC50 [8] | IC50 [9] | Ki [9]

CO[C@H]1C[C@@H]2CC[C@@H](C)[C@@](O)(O2)C(=O)C(=O)N2CCCC[C@H]2C(=O)O[C@H]([C@H](C)C[C@@H]2CC[C@@H](O)[C@H](OC)C2)CC(=O)[C@H](C)/C=C(\C)[C@@H](O)[C@@H](OC)C(=O)[C@H](C)C[C@H](C)/C=C/C=C/C=C/1C [SIROLIMUS]
Not Active: IC50 [1] | Ki [1] | IC50 [2] | Ki [2] | IC50 [3] | Ki [3] | IC50 [4] | Ki [4] | IC50 [5] | Ki [5] | IC50 [6] | Ki [6] | IC50 [7] | IC50 [8] | IC50 [9] | Ki [9]
